Experimental data taken from patent US20110150976A1, “TRANSDERMAL DELIVERY OF OLIGOSACCHARIDES” (TRANSPHARMA MEDICAL LTD., priority 2008, published 2011).
Like-named read-outs stand apart in the source and are kept apart here.

Assays:
[1] = set-up: species or system pigs; conditions: pig, in vivo
Method: Transdermal delivery of fondaparinux from a silicon pouch containing the pentasaccharide in solution through micro-channels generated in pig skin by the […] apparatus was evaluated. The experiment included the following groups: • 1.

[2] = In-vitro dissolution of printed patches; type: physicochemical; conditions: printed patches 5 mg fondaparinux with 3.6 mg NaCl, from lyophilized Arixtra
Method: As the printed patches were prepared following lyophilization of the Arixtra® for injection, 5 mg fondaparinux in each patch contained 3.6 mg of NaCl (42% of the total patch solids).

[3] = set-up: species or system pigs; conditions: pig, in vivo; remark: listed apart in the source
Method: Transdermal delivery of fondaparinux from a printed patch through micro-channels generated in pig skin by the […] apparatus was evaluated. The experiment included the following groups: • 1. […] To prepare the printed patches containing fondaparinux, a concentrated reconstituted solution of Arixtra® (fondaparinux sodium) was applied onto the patch and then air-dried. Each patch was affixed to the […] treated skin for 24 hours.

[4] = human; cited from earlier work
[5] = Histological assessment of skin after micro-channel generation and treatment with fondaparinux; type: in vivo; conditions: pigs, 450 MCs/cm^2, dried patch 1.25 mg, biopsies 13 and 22.5 hours post application
Method: Histological assessments were performed in order to determine the effect of application of a high concentration of fondaparinux to skin in which micro-channels have been generated. Pigs were treated with […] apparatus to generate micro-channels at a density of 450 MCs/cm^2 (burst length of 6000 μsec). […] All biopsies (8 mm diameter) were fixed in 4% formaldehyde buffer for at least 48 hrs followed by staining with eosin and hematoxylin (H&E).

Question: Which results are given for `CO[C@H]1O[C@H](COS(=O)(=O)O)[C@@H](O[C@@H]2O[C@@H](C(=O)O)[C@@H](O[C@H]3O[C@H](COS(=O)(=O)O)[C@@H](O[C@@H]4O[C@H](C(=O)O)[C@@H](O[C@H]5O[C@H](COS(=O)(=O)O)[C@@H](O)[C@H](O)[C@H]5NS(=O)(=O)O)[C@H](O)[C@H]4O)[C@H](OS(=O)(=O)O)[C@H]3NS(=O)(=O)O)[C@H](O)[C@H]2OS(=O)(=O)O)[C@H](O)[C@H]1NS(=O)(=O)O` [fondaparinux]?
Answer: AUC ([1]; sc, 1 mg): 1533.33 ± 1303.96 ng·h/mL; Cmax ([1]; sc, 1 mg): 235.72 ± 47.79 ng/mL; AUC ([1]; topical or ocular, 28 mg): 5659.33 ± 956.94 ng·h/mL; Cmax ([1]; topical or ocular, 28 mg): 709.74 ± 103.61 ng/mL; in-vitro dissolution of printed patches [2]: ~85%; bioavailability from printed patches ([3]; 5 mg): 11-17%; % BA (bioavailability) ([3]; sc, 1 mg): 100%; AUC ([3]; sc, 1 mg): 291 1.25 ± 2242.07 ng*h/ml; Tmax ([3]; sc, 1 mg): 2 h; half-life [4]: approximately 17 hours; abnormalities in the skin tissue (histology, H&E) [5]: no abnormalities; signs of bleeding at the site of the treated skin (histology, H&E) [5]: no signs of bleeding
